Where “and” joins values, the source holds several entries; their conditions need not be identical. Equal values may be shown once.
Assay: Dissolution test of naltrexone from intact and ground tablets
Format: physicochemical
Protocol: Polylactid acid was injection moulded in a Haake Minijet (Haake MiniJet II, Thermo Electron, Karlsruhe, Germany) as described in Methods. An inner core filled with approximately 25 mg Naltrexone hydrochloride was prepared and closed in both ends with the above mentioned shell composition. The inner core has a size of 8 mm×4.26 mm×2.49 mm. The inner core was placed in the cavity of a larger shell 2 (H: 20 mm; L: 6 mm; B: 6 mm) with the same shell composition and the large shell was filled with placebo matrix composition as described in Methods.
Dissolution tests of naltrexone were performed in accordance to USP 30, NF 25, (711). Apparatus 2 (paddle method). The dissolution medium consisted of phosphate buffer solution pH 6.8. The volume of the dissolution medium was 500 ml and the rotation speed of the paddles was 50 rpm throughout the dissolution rum. The temperature was 37° C. Samples were withdrawn at suitable time intervals and analysed for content of active drug substance by means of HPLC UV detection. Intact tablets n=2 and tablets milled in a Coffee Grinder, Krups GVX242 (n=2) were analyse in dissolution.
The amount of naltrexone was determined by a modified USP method. The technique was reverse phase chromatography, using a Supelco Ascentis Express C18 2.7 μm 4.6*100 mm column. The mobile phase consisted of 1.08 g sodium 1-octanesulphonate, 23.8 g sodium acetate, 1 ml triethylamine, 450 ml methanol and approximately 550 ml water. The HPLC settings were as follows: Isocratic, column temperature 30° C. flow 0.6 ml/min, detection HPLC-UV at 280 nm, injection volume 20 μl with a 6 minutes run time.

Structure (SMILES): O=C1CC[C@@]2(O)[C@H]3Cc4ccc(O)c5c4[C@@]2(CCN3CC2CC2)[C@H]1O5 [Naltrexone]
- Amount of naltrexone found in dissolution medium (Ground tablet (Coffee Grinder, Krups GVX242), 0.2 hours, phosphate buffer pH 6.8, 100% = 25 mg): 34.1% and 31.5%
- Amount of naltrexone found in dissolution medium (Ground tablet, 0.5 hours): 36.3% and 34.2%
- Amount of naltrexone found in dissolution medium (Ground tablet, 0.8 hours): 36.6% and 34.7%
- Amount of naltrexone found in dissolution medium (Ground tablet, 1.5 hours): 37.4% and 34.9%
- Amount of naltrexone found in dissolution medium (Ground tablet, 20 hours): 39.0% and 37.1%
- Amount of naltrexone found in dissolution medium (Ground tablet, 30 hours): 34.9% and 35.9%
